# Results from PubChem BioAssay AID248 (DTP/NCI, 2004).
# Values joined by “and” are separate entries in the source; they are usually repeats but may differ in a detail not shown here. Equal entries are not always repeated. Inconclusive results and toxic doses are left out.
# Tested on: L1210 leukemia ip in BDF1 mice, survival T/C
# Experiment: NCI In Vivo Anticancer Drug Screen. Data for tumor model L1210 Leukemia (intraperitoneal) in B6D2F1 (BDF1) mice
# Settings: endpoint: mean survival time, higher = longer survival
# In short: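 Ratio derived from survival: compound-dosed mice over vehicle-dosed mice, all bearing a transplantable tumor.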
# [1] = dose: 100.0 mg/kg/injection, schedule: Q01DX009 (ip), vehicle: Klucel (hydroxypropylcellulose) (HPC)
# [2] = dose: 100.0 mg/kg/injection, schedule: Q04DX003 (ip), vehicle: Klucel (hydroxypropylcellulose) (HPC)
# [3] = dose: 200.0 mg/kg/injection, schedule: Q01DX009 (ip), vehicle: Klucel (hydroxypropylcellulose) (HPC)
# [4] = dose: 200.0 mg/kg/injection, schedule: Q04DX003 (ip), vehicle: Klucel (hydroxypropylcellulose) (HPC)
# [5] = dose: 400.0 mg/kg/injection, schedule: Q01DX009 (ip), vehicle: Klucel (hydroxypropylcellulose) (HPC)
# [6] = dose: 400.0 mg/kg/injection, schedule: Q04DX003 (ip), vehicle: Klucel (hydroxypropylcellulose) (HPC)
# [7] = dose: 100.0 mg/kg/injection, schedule: Q01DX009 (ip), vehicle: saline with Tween-80
# [8] = dose: 200.0 mg/kg/injection, schedule: Q01DX009 (ip), vehicle: saline with Tween-80
# [9] = dose: 100.0 mg/kg/injection, schedule: Q01DX001 (ip), vehicle: saline
# [10] = dose: 200.0 mg/kg/injection, schedule: Q01DX001 (ip), vehicle: saline
# [11] = dose: 400.0 mg/kg/injection, schedule: Q01DX001 (ip), vehicle: saline
# [12] = dose: 3.12 mg/kg/injection, schedule: Q01DX009 (ip), vehicle: saline with Tween-80
# [13] = dose: 6.25 mg/kg/injection, schedule: Q01DX009 (ip), vehicle: saline with Tween-80
smiles,measurement,setting,value
CCN(Cc1ccc(Cl)c(Cl)c1)c1ccc2nc(N)nc(N)c2c1C,T/C,"dose: 1.56 mg/kg/injection, schedule: Q01DX009 (ip), vehicle: water",110 % of control
same,T/C,"dose: 3.12 mg/kg/injection, schedule: Q01DX009 (ip), vehicle: water",103 % of control and 110 % of control
same,T/C,"dose: 6.25 mg/kg/injection, schedule: Q01DX009 (ip), vehicle: water",116 % of control and 124 % of control
same,T/C,"dose: 12.5 mg/kg/injection, schedule: Q01DX009 (ip), vehicle: water",121 % of control
same,T/C,"dose: 25.0 mg/kg/injection, schedule: Q01DX009 (ip), vehicle: water",110 % of control
Nc1nc(N)nc(-c2ccccc2NC(=O)c2ccccc2N)n1,T/C,[1],95 % of control
same,T/C,[2],103 % of control
same,T/C,[3],91 % of control
same,T/C,[4],101 % of control
same,T/C,[5],101 % of control
same,T/C,[6],95 % of control
O=C(O)C(O)c1cccc2ccccc12 (stereo not drawn),T/C,[7],100 % of control
same,T/C,[8],100 % of control
O=c1[nH]nnc2ncn(C3OC(CO)C(O)C3O)c12 (stereo not drawn),T/C,"dose: 100.0 mg/kg/injection, schedule: Q01DX005 (ip), vehicle: saline",91 % of control
same,T/C,"dose: 200.0 mg/kg/injection, schedule: Q01DX005 (ip), vehicle: saline",87 % of control
NC(N)=N/N=C(C(=O)O)/C(=N\N=C(N)N)C(=O)O,T/C,"dose: 30.0 mg/kg/injection, schedule: Q01DX Z (oral), vehicle: carboxymethylcellulose (CMC)",101 % of control
same,T/C,"dose: 60.0 mg/kg/injection, schedule: Q01DX Z (oral), vehicle: carboxymethylcellulose (CMC)",101 % of control
same,T/C,"dose: 120.0 mg/kg/injection, schedule: Q01DX Z (oral), vehicle: carboxymethylcellulose (CMC)",101 % of control
same,T/C,"dose: 240.0 mg/kg/injection, schedule: Q01DX Z (oral), vehicle: carboxymethylcellulose (CMC)",109 % of control
same,T/C,"dose: 480.0 mg/kg/injection, schedule: Q01DX Z (oral), vehicle: carboxymethylcellulose (CMC)",106 % of control
same,T/C,"dose: 960.0 mg/kg/injection, schedule: Q01DX Z (oral), vehicle: carboxymethylcellulose (CMC)",106 % of control
Oc1ccc2ccccc2c1CNc1ccccc1,T/C,"dose: 100.0 mg/kg/injection, schedule: Q04DX003 (ip), vehicle: other",88 % of control
same,T/C,"dose: 200.0 mg/kg/injection, schedule: Q04DX003 (ip), vehicle: other",94 % of control
CN(C)P1N(C)CCN1C,T/C,[9],95 % of control
same,T/C,[10],106 % of control
same,T/C,[11],87 % of control
COc1cccc(C(=NC(=O)c2ccccc2)c2ccccc2)c1,T/C,[1],100 % of control
same,T/C,[3],97 % of control
same,T/C,[5],91 % of control
O=C1OCCC1C(=O)C(O)(C(F)(F)F)C(F)(F)F (stereo not drawn),T/C,"dose: 100.0 mg/kg/injection, schedule: Q01DX009 (ip), vehicle: other",96 % of control
same,T/C,"dose: 200.0 mg/kg/injection, schedule: Q01DX009 (ip), vehicle: other",100 % of control
same,T/C,"dose: 400.0 mg/kg/injection, schedule: Q01DX009 (ip), vehicle: other",94 % of control
COc1cccc2c1C(=O)c1c(O)c3c(c(O)c1C2=O)C[C@@](O)(/C(C)=N/N1CCCCC1)C[C@@H]3OC1CC(N)C(O)C(C)O1 (stereo partly drawn),T/C,"dose: 0.12 mg/kg/injection, schedule: Q01DX009 (ip), vehicle: water",114 % of control
same,T/C,"dose: 0.25 mg/kg/injection, schedule: Q01DX009 (ip), vehicle: water",113 % of control
same,T/C,"dose: 0.25 mg/kg/injection, schedule: Q04DX003 (ip), vehicle: water",110 % of control
same,T/C,"dose: 0.5 mg/kg/injection, schedule: Q01DX009 (ip), vehicle: water",117 % of control
same,T/C,"dose: 0.5 mg/kg/injection, schedule: Q04DX003 (ip), vehicle: water",118 % of control
same,T/C,"dose: 1.0 mg/kg/injection, schedule: Q04DX003 (ip), vehicle: water",116 % of control
same,T/C,"dose: 2.0 mg/kg/injection, schedule: Q01DX009 (ip), vehicle: water",119 % of control
same,T/C,[12],150 % of control
same,T/C,"dose: 4.0 mg/kg/injection, schedule: Q01DX009 (ip), vehicle: water",114 % of control and 88 % of control
same,T/C,[13],123 % of control
same,T/C,"dose: 16.0 mg/kg/injection, schedule: Q04DX003 (ip), vehicle: water",86 % of control
CCN(CC)CCCC(C)Nc1cc(/C=C/c2ccc(Cl)cc2)nc2ccc(N(C)C)cc12 (stereo not drawn),T/C,[12],95 % of control
same,T/C,[13],97 % of control
same,T/C,"dose: 12.5 mg/kg/injection, schedule: Q01DX009 (ip), vehicle: saline with Tween-80",95 % of control and 98 % of control
Cc1nc(N)[nH]c(=O)c1CCCNc1nc(Cl)nc(Cl)n1,T/C,"dose: 100.0 mg/kg/injection, schedule: Q04DX002 (ip), vehicle: Klucel (hydroxypropylcellulose) (HPC)",91 % of control
same,T/C,"dose: 200.0 mg/kg/injection, schedule: Q04DX002 (ip), vehicle: Klucel (hydroxypropylcellulose) (HPC)",91 % of control
same,T/C,"dose: 400.0 mg/kg/injection, schedule: Q04DX002 (ip), vehicle: Klucel (hydroxypropylcellulose) (HPC)",88 % of control
CCCN(CCC)S(=O)(=O)c1ccc(NC(=O)OC(c2ccccc2)(c2ccccc2)c2ccccc2)cc1,T/C,[9],100 % of control
same,T/C,[10],97 % of control
same,T/C,[11],94 % of control
CCCn1c(=O)cc(C)c2ccccc21,T/C,"dose: 100.0 mg/kg/injection, schedule: Q01DX001 (ip), vehicle: other",105 % of control
same,T/C,"dose: 200.0 mg/kg/injection, schedule: Q01DX001 (ip), vehicle: other",90 % of control
same,T/C,"dose: 400.0 mg/kg/injection, schedule: Q01DX001 (ip), vehicle: other",91 % of control
CN(C)c1ccc(/C=N/NC(=S)Nc2cccc3cccnc23)cc1,T/C,[9],105 % of control
same,T/C,[10],102 % of control
same,T/C,[11],96 % of control
CCCOC(=O)CCl,T/C,[9],113 % of control
CC1CC[N-]CC1.CC1CC[N-]CC1.CS(C)=O.[Cl][Rh]([Cl])[Cl],T/C,"dose: 3.0 mg/kg/injection, schedule: Q01DX009 (ip), vehicle: saline with Tween-80",98 % of control
same,T/C,"dose: 6.0 mg/kg/injection, schedule: Q01DX009 (ip), vehicle: saline with Tween-80",106 % of control
same,T/C,"dose: 12.0 mg/kg/injection, schedule: Q01DX009 (ip), vehicle: saline with Tween-80",109 % of control
O=[N+]([O-])c1ccc(S(=O)NOCc2ccccc2)cc1 (stereo not drawn),T/C,[1],96 % of control
same,T/C,[3],94 % of control
same,T/C,[5],91 % of control
Cc1cc2nc(NC(=O)C3CC3)sc2cc1C,T/C,[1],91 % of control
same,T/C,[3],91 % of control
COc1ccc(Cl)cc1,T/C,[7],92 % of control
same,T/C,[8],90 % of control
N#CCCN(CCC#N)c1ccc(C=O)cc1,T/C,[1],97 % of control
same,T/C,[2],111 % of control
same,T/C,[3],103 % of control
same,T/C,[4],93 % of control
same,T/C,[5],96 % of control
same,T/C,[6],98 % of control
CC(NC1CCCCC1)C(=O)O (stereo not drawn),T/C,"dose: 12.5 mg/kg/injection, schedule: Q04DX002 (ip), vehicle: Klucel (hydroxypropylcellulose) (HPC)",93 % of control
same,T/C,"dose: 25.0 mg/kg/injection, schedule: Q04DX002 (ip), vehicle: Klucel (hydroxypropylcellulose) (HPC)",96 % of control
same,T/C,"dose: 50.0 mg/kg/injection, schedule: Q04DX002 (ip), vehicle: Klucel (hydroxypropylcellulose) (HPC)",89 % of control
Cc1cc(OCc2nc(N)nc(N)c2-c2ccc(Cl)c(Cl)c2)ccc1NC(=O)c1ccc(S(=O)(=O)F)cc1,T/C,"dose: 75.0 mg/kg/injection, schedule: Q01DX001 (ip), vehicle: saline with Tween-80",100 % of control
CSC(N)=Nc1cccc(C)c1C,T/C,"dose: 50.0 mg/kg/injection, schedule: Q01DX009 (ip), vehicle: saline",100 % of control
same,T/C,"dose: 100.0 mg/kg/injection, schedule: Q01DX009 (ip), vehicle: saline",101 % of control
same,T/C,"dose: 100.0 mg/kg/injection, schedule: Q04DX003 (ip), vehicle: saline",97 % of control
same,T/C,"dose: 200.0 mg/kg/injection, schedule: Q04DX003 (ip), vehicle: saline",97 % of control
